The source of these data is patent publication US8883782B2, “Spiro-tetracyclic ring compounds as beta-secretase modulators and methods of use” (Amgen Inc., priority 2010, dated 2014).

In experiment [1] the target is Beta Secretase enzyme (BACE) (Homo sapiens, UniProt P56817). As to the kind of experiment: In vitro enzymatic BACE FRET (fluorescence resonance energy transfer) assay. Format: biochemical. In a few lines: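 Fluorescence read after Tris quench to neutral pH. Reaction: 50 nM fluorophore/quencher peptide substrate, 1 h, in 0.05 M acetate pH 4.2, 10% DMSO final, 100 uM genapol.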
Sequence of Beta Secretase enzyme (BACE) (P56817 46-501, species assumed): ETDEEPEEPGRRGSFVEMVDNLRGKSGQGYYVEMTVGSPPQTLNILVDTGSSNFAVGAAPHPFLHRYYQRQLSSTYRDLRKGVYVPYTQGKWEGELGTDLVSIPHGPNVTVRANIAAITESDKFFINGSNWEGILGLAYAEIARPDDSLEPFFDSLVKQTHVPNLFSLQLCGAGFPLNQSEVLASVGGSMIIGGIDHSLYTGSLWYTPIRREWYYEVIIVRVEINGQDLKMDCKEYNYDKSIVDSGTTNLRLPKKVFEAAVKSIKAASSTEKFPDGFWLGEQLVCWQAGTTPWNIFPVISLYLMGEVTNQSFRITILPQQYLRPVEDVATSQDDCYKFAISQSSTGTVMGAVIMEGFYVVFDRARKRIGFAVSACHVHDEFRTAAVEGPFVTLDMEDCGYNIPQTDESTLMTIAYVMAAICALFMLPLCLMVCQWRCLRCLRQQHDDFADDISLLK

Experiment [2] deals with Aβ40 in conditioned medium of cells stably expressing Amyloid Precursor Protein (APP). Briefly: In vitro BACE cell-based assay (Aβ40 in conditioned medium, sandwich ELISA). The method in brief: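 The sandwich ELISA pairs pAb40 capture (3 h, 4 °C) with 6E10 detection (2 h, 4 °C) and a streptavidin-europium TRF read-out. Supernatants come from APP-expressing cells grown in 10% FBS DMEM.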
In general terms: ELISA stands for enzyme-linked immunosorbent assay.

Where [3] appears, read: average IC50, enzyme assay, read-out: BACE 1 FRET assay.
The mark [4] stands for this setting: Homo sapiens, HEK293, average IC50, read-out: HEK cell assay.
Setting [5] is: Homo sapiens, HEK293, average IC50, HEK cells, read-out: HEK cell assay.

Read-outs that look alike come from different tables or passages of the source.

Consider `CC1(C#Cc2cc3c(c(F)n2)Oc2ccc(-c4cccnc4F)cc2C32COC(N)=N2)COC1` (stereo not shown) [Example 733, 1-fluoro-7-(2-fluoro-3-pyridinyl)-3-((3-methyl-3-oxetanyl)ethynyl)spiro[chromeno[2,3-c]pyridine-5,4′-[1,3]oxazol]-2′-amine], for which the IC50 in experiment [1] (setting [3]) stood at 0.0011 µM; in experiment [2] (setting [4]), 0.018 µM.
The corresponding values for `CC#Cc1cncc(-c2cc(F)c3c(c2)[C@]2(COC(N)=N2)c2cc(OC)ccc2O3)c1` [Example 776, (4S)-4′-fluoro-7′-methoxy-2′-(5-(1-propyn-1-yl)-3-pyridinyl)spiro[1,3-oxazole-4,9′-xanthen]-2-amine] are 2.38 µM and no less than 10 µM.
In the same order, the values of `NC1=N[C@@]2(CO1)c1cc(-c3cncnc3)c(F)cc1Oc1c(F)cc(C3=CCCOC3)cc12` [Example 1039, (4S)-7′-(5,6-dihydro-2H-pyran-3-yl)-3′,5′-difluoro-2′-(5-pyrimidinyl)spiro[1,3-oxazole-4,9′-xanthen]-2-amine] are 0.0004 µM and 0.008 µM.
With `CCc1cc2c(c(F)n1)Oc1ccc(-c3cncc(F)c3)cc1[C@@]21COC(N)=N1` [Example 850, (5S)-3-ethyl-1-fluoro-7-(5-fluoro-3-pyridinyl)spiro[chromeno[2,3-c]pyridine-5,4′-[1,3]oxazol]-2′-amine], the IC50 in experiment [1] (setting [3]) came to 0.0045 µM; in experiment [2] (setting [5]) it was 0.052 µM.
`Cn1cc(-c2cc3c(cn2)Oc2ccc(-c4ccccc4)cc2[C@@]32COC(N)=N2)cn1` [Example 367, (5S)-3-(1-methyl-1H-pyrazol-4-yl)-7-phenylspiro[chromeno[2,3-c]pyridine-5,4′-[1,3]oxazol]-2′-amine]: the IC50 in experiment [1] (setting [3]) came out at 0.0133 µM; in experiment [2] (setting [4]), 0.074 µM.
As to `NC1=N[C@@]2(CS1)c1cc(-c3cncc(F)c3)ccc1Oc1cnc(C3=CCOCC3)cc12` [Example 592, (5S)-3-(3,6-dihydro-2H-pyran-4-yl)-7-(5-fluoro-3-pyridinyl)spiro[chromeno[2,3-c]pyridine-5,4′-[1,3]thiazol]-2′-amine], the IC50 in experiment [1] (setting [3]) was found to be 0.0009 µM; in experiment [2] (average IC50, HEK cells, read-out: HEK cell assay), 0.0213 µM.
For the compound `NC1=N[C@]2(CO1)c1cc(-c3cccnc3F)c(F)cc1Oc1ncc(-c3ccc(F)nc3)cc12` [Example 897, (5R)-8-fluoro-7-(2-fluoro-3-pyridinyl)-3-(6-fluoro-3-pyridinyl)spiro[chromeno[2,3-b]pyridine-5,4′-[1,3]oxazol]-2′-amine], the values for the IC50 in experiment [1] (setting [3]) and in experiment [2] (setting [5]) were 0.175 µM and 6.36 µM, respectively.
In the same order, the values of `CC1(COc2cc(F)c3c(c2)[C@]2(COC(N)=N2)c2cc(-c4cccc(C#N)c4)ccc2O3)COC1` [Example 562, 3-((4S)-2-amino-5′-fluoro-7′-((3-methyl-3-oxetanyl)methoxy)spiro[1,3-oxazole-4,9′-xanthen]-2′-yl)benzonitrile] are 0.002 µM and 0.0058 µM.
The corresponding values for `COc1cc(-c2cc3c(cn2)Oc2ccc(-c4cccnc4F)cc2[C@@]32COC(N)=N2)ccc1F` [Example 537, (5S)-3-(4-fluoro-3-methoxyphenyl)-7-(2-fluoro-3-pyridinyl)spiro[chromeno[2,3-c]pyridine-5,4′-[1,3]oxazol]-2′-amine] are 0.0076 µM and 0.303 µM.
The corresponding values for `CC1(COc2cc(F)c3c(c2)[C@@]2(CSC(N)=N2)c2cc(-c4cccnc4)c(F)cc2O3)COC1` [Example 877, (4R)-3′,5′-difluoro-7′-((3-methyl-3-oxetanyl)methoxy)-2′-(3-pyridinyl)spiro[1,3-thiazole-4,9′-xanthen]-2-amine] are 0.183 µM and 3 µM.
For the compound `C[C@@](C#Cc1cnc2c(c1)[C@]1(COC(N)=N1)c1cc(-c3cccnc3F)ccc1O2)(CO)CCl` [Example 1015, (2R)-4-((5S)-2′-amino-7-(2-fluoro-3-pyridinyl)spiro[chromeno[2,3-b]pyridine-5,4′-[1,3]oxazol]-3-yl)-2-(chloromethyl)-2-methyl-3-butyn-1-ol], the IC50 amounted to 0.001 µM in experiment [1] (setting [3]) and 0.009 µM in experiment [2] (setting [4]).
In the same order, the values of `NC1=N[C@@]2(CO1)c1cc(-c3ccc(F)nc3)ccc1Oc1c(F)cc(-c3ncccn3)cc12` [Example 289, (4S)-4′-fluoro-7′-(6-fluoro-3-pyridinyl)-2′-(2-pyrimidinyl)spiro[1,3-oxazole-4,9′-xanthen]-2-amine] are 0.0025 µM and 0.0146 µM.
In the same order, the values of `COc1nc(-c2ccncc2)cc2c1Oc1ccc(-c3cccnc3F)cc1[C@@]21COC(N)=N1` [Example 834, (5S)-7-(2-fluoro-3-pyridinyl)-1-methoxy-3-(4-pyridinyl)spiro[chromeno[2,3-c]pyridine-5,4′-[1,3]oxazol]-2′-amine] are 0.0035 µM and 0.07 µM.
The corresponding values for `CC1(C)C=C(c2cnc3c(c2)[C@@]2(COC(N)=N2)c2c(ccc(-c4cccnc4F)c2F)O3)CCO1` [Example 350, (5S)-3-(6,6-dimethyl-3,6-dihydro-2H-pyran-4-yl)-6-fluoro-7-(2-fluoro-3-pyridinyl)spiro[chromeno[2,3-b]pyridine-5,4′-[1,3]oxazol]-2′-amine] are 0.53 µM and 0.685 µM.
With `CC(C)(C)/C=C/c1ccc2c(c1)[C@]1(COC(N)=N1)c1cc(Cl)ncc1O2` [Example 383, (5R)-3-chloro-7-((1E)-3,3-dimethyl-1-buten-1-yl)spiro[chromeno[2,3-c]pyridine-5,4′-[1,3]oxazol]-2′-amine], the IC50 in experiment [1] (setting [3]) amounted to 0.622 µM; in experiment [2] (setting [5]), 2.56 µM.
For the compound `CC#Cc1cncc(-c2ccc3c(c2)[C@@]2(CSC(N)=N2)c2cc(C#CC4(C)COC4)cnc2O3)c1` [Example 782, (5S)-3-((3-methyl-3-oxetanyl)ethynyl)-7-(5-(1-propyn-1-yl)-3-pyridinyl)spiro[chromeno[2,3-b]pyridine-5,4′-[1,3]thiazol]-2′-amine], the IC50 in experiment [1] (setting [3]) is 0.0009 µM; in experiment [2] (setting [4]), 0.004 µM.
On to `NC1=N[C@]2(CO1)c1cc(-c3cccnc3F)ccc1Oc1nc(F)ccc12` [Example 485, (5R)-2-fluoro-7-(2-fluoro-3-pyridinyl)spiro[chromeno[2,3-b]pyridine-5,4′-[1,3]oxazol]-2′-amine], for which the IC50 in experiment [1] (setting [3]) came to 0.175 µM; in experiment [2] (setting [5]), 0.852 µM.
In the case of `Cc1ccnc(F)c1-c1ccc2c(c1)[C@@]1(COC(N)=N1)c1cc(-c3ccnc(F)c3)ncc1O2` [Example 237, (5S)-7-(2-fluoro-4-methyl-3-pyridinyl)-3-(2-fluoro-4-pyridinyl)spiro[chromeno[2,3-c]pyridine-5,4′-[1,3]oxazol]-2′-amine], the figures for the IC50 in experiment [1] (setting [3]) and in experiment [2] (setting [4]) were 0.0016 µM and 0.0224 µM, respectively.
The corresponding values for `Cc1ccc(-c2cc(F)c3c(c2)[C@]2(COC(N)=N2)c2cc(-c4cccnc4F)ccc2O3)nn1` [Example 114, (S)-4′-fluoro-7′-(2-fluoropyridin-3-yl)-2′-(6-methylpyridazin-3-yl)-5H-spiro[oxazole-4,9′-xanthen]-2-amine] are 0.0005 µM and 0.004 µM.
In the case of `Cc1ccn(-c2cc(F)c3c(c2)[C@]2(COC(N)=N2)c2cc(-c4cccnc4F)ccc2O3)n1` [Example 620, (4S)-4′-fluoro-7′-(2-fluoro-3-pyridinyl)-2′-(3-methyl-1H-pyrazol-1-yl)spiro[1,3-oxazole-4,9′-xanthen]-2-amine], the IC50 came out at 0.0028 µM in experiment [1] (setting [3]) and 0.068 µM in experiment [2] (setting [5]).
Turning to `CC#Cc1cncc(-c2ccc3c(c2)[C@@]2(COC(N)=N2)c2cc(-c4ccnc(C)c4)nc(F)c2O3)c1` [Example 740, (5S)-1-fluoro-3-(2-methyl-4-pyridinyl)-7-(5-(1-propyn-1-yl)-3-pyridinyl)spiro[chromeno[2,3-c]pyridine-5,4′-[1,3]oxazol]-2′-amine], the IC50 was 0.0008 µM in experiment [1] (setting [3]) and 0.008 µM in experiment [2] (setting [4]).
For the compound `NC1=N[C@@]2(CS1)c1cc(-c3cccnc3F)ccc1Oc1cnc(C3=CCOCC3)cc12` [Example 590, (5S)-3-(3,6-dihydro-2H-pyran-4-yl)-7-(2-fluoro-3-pyridinyl)spiro[chromeno[2,3-c]pyridine-5,4′-[1,3]thiazol]-2′-amine], the IC50 was determined as 0.0007 µM in experiment [1] (BACE 1 FRET assay (uM)) and 0.0093 µM in experiment [2] (Homo sapiens, HEK293, read-out: HEK cell assay (uM), average IC50, HEK cells).
`CC1(C)CC(c2cc3c(c(F)n2)Oc2ccc(-c4cccnc4F)cc2[C@@]32CSC(N)=N2)=CCO1` [Example 1034, (5S)-3-(2,2-dimethyl-3,6-dihydro-2H-pyran-4-yl)-1-fluoro-7-(2-fluoro-3-pyridinyl)spiro[chromeno[2,3-c]pyridine-5,4′-[1,3]thiazol]-2′-amine]: the IC50 in experiment [1] (setting [3]) worked out at 0.0007 µM; in experiment [2] (setting [4]) it was 0.005 µM.
With `NC1=N[C@]2(CO1)c1cc(-c3cccnc3)ccc1Oc1c2cc(-c2cccnc2)nc1F` [Example 486, (5R)-1-fluoro-3,7-di-3-pyridinylspiro[chromeno[2,3-c]pyridine-5,4′-[1,3]oxazol]-2′-amine], the IC50 in experiment [1] (setting [3]) was 0.301 µM; in experiment [2] (setting [5]), 0.326 µM.
In the same order, the values of `CC1(C#Cc2cnc3c(c2)[C@]2(CSC(N)=N2)c2cc(-c4cnccn4)ccc2O3)COC1` [Example 666, (5S)-3-((3-methyl-3-oxetanyl)ethynyl)-7-(2-pyrazinyl)spiro[chromeno[2,3-b]pyridine-5,4′-[1,3]thiazol]-2′-amine] are 0.0008 µM and 0.013 µM.
As for `CC#Cc1cncc(-c2ccc3c(c2)[C@@]2(COC(N)=N2)c2cc(C4=CCCOC4)cnc2O3)c1` [Example 950, (5S)-3-(5,6-dihydro-2H-pyran-3-yl)-7-(5-(1-propyn-1-yl)-3-pyridinyl)spiro[chromeno[2,3-b]pyridine-5,4′-[1,3]oxazol]-2′-amine], the values for the IC50 in experiment [1] (setting [3]) and in experiment [2] (setting [5]) were 0.0003 µM and 0.002 µM, respectively.
